Experimental data from PubChem BioAssay (NCI).
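Test compounds were applied to cells in 96-well plates for 48 hours at 5 doses. TGI marks complete inhibition of growth.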

Tests used:
Assay in all cases: inhibition of tumour cell growth, NCI panel, 48 h
MDA-N = test system: MDA-N
SK-OV-3 ovarian = test system: SK-OV-3 ovarian
HCC-2998 colon = test system: HCC-2998 colon
UACC-62 melanoma = test system: UACC-62 melanoma
IGROV1 ovarian = test system: IGROV1 ovarian
EKVX NSCLC = test system: EKVX NSCLC
A549 NSCLC = test system: A549 NSCLC
OVCAR-3 ovarian = test system: OVCAR-3 ovarian
NCI-H226 lung = test system: NCI-H226 lung
HOP-92 NSCLC = test system: HOP-92 NSCLC
DU-145 prostate = test system: DU-145 prostate
TK-10 renal = test system: TK-10 renal
SN12C renal = test system: SN12C renal
SNB-19 CNS = test system: SNB-19 CNS
NCI-H460 lung = test system: NCI-H460 lung
OVCAR-5 ovarian = test system: OVCAR-5 ovarian
COLO 205 colon = test system: COLO 205 colon
HT29 colon = test system: HT29 colon
NCI-H23 lung = test system: NCI-H23 lung
HCT-15 colon = test system: HCT-15 colon
NCI/ADR-RES ovarian = test system: NCI/ADR-RES ovarian
SK-MEL-5 melanoma = test system: SK-MEL-5 melanoma
HOP-62 NSCLC = test system: HOP-62 NSCLC
ACHN renal = test system: ACHN renal
UO-31 renal = test system: UO-31 renal
KM12 colon = test system: KM12 colon
MDA-MB-231 breast = test system: MDA-MB-231 breast
T-47D breast = test system: T-47D breast
U251 CNS = test system: U251 CNS
HCT-116 colon = test system: HCT-116 colon
SW-620 colon = test system: SW-620 colon
SK-MEL-2 melanoma = test system: SK-MEL-2 melanoma
A498 renal = test system: A498 renal
RPMI-8226 leukemia = test system: RPMI-8226 leukemia
BT-549 breast = test system: BT-549 breast
SNB-75 CNS = test system: SNB-75 CNS
SF-539 CNS = test system: SF-539 CNS
SF-268 CNS = test system: SF-268 CNS
HS 578T breast = test system: HS 578T breast
SK-MEL-28 melanoma = test system: SK-MEL-28 melanoma
SF-295 CNS = test system: SF-295 CNS
786-0 renal = test system: 786-0 renal
OVCAR-8 ovarian = test system: OVCAR-8 ovarian
M14 melanoma = test system: M14 melanoma
UACC-257 melanoma = test system: UACC-257 melanoma
RXF 393 renal = test system: RXF 393 renal
MCF7 breast = test system: MCF7 breast
MDA-MB-435 = test system: MDA-MB-435
OVCAR-4 ovarian = test system: OVCAR-4 ovarian
MOLT-4 leukemia = test system: MOLT-4 leukemia
HL-60(TB) leukemia = test system: HL-60(TB) leukemia
K-562 leukemia = test system: K-562 leukemia
PC-3 prostate = test system: PC-3 prostate
MALME-3M melanoma = test system: MALME-3M melanoma
NCI-H522 lung = test system: NCI-H522 lung
CCRF-CEM leukemia = test system: CCRF-CEM leukemia

O=C(Cc1ccccc1)NN1C(=O)/C(=C\c2ccccc2O)SC1=Nc1ccccc1
TGI (MDA-N): > 100 µM | TGI (SK-OV-3 ovarian): > 100 µM | TGI (HCC-2998 colon): > 100 µM | TGI (UACC-62 melanoma): > 100 µM | TGI (IGROV1 ovarian): > 100 µM | TGI (EKVX NSCLC): > 100 µM | TGI (A549 NSCLC): > 100 µM | TGI (OVCAR-3 ovarian): > 100 µM | TGI (NCI-H226 lung): > 100 µM | TGI (HOP-92 NSCLC): > 100 µM | TGI (DU-145 prostate): > 100 µM | TGI (TK-10 renal): > 100 µM | TGI (SN12C renal): > 100 µM | TGI (SNB-19 CNS): > 100 µM | TGI (NCI-H460 lung): > 100 µM | TGI (OVCAR-5 ovarian): > 100 µM | TGI (COLO 205 colon): > 100 µM | TGI (HT29 colon): > 100 µM | TGI (NCI-H23 lung): > 100 µM | TGI (HCT-15 colon): > 100 µM | TGI (NCI/ADR-RES ovarian): > 100 µM | TGI (SK-MEL-5 melanoma): > 100 µM | TGI (HOP-62 NSCLC): > 100 µM | TGI (ACHN renal): > 100 µM | TGI (UO-31 renal): > 100 µM | TGI (KM12 colon): > 100 µM | TGI (MDA-MB-231 breast): > 100 µM | TGI (T-47D breast): > 100 µM | TGI (U251 CNS): > 100 µM | TGI (HCT-116 colon): > 100 µM | TGI (SW-620 colon): > 100 µM | TGI (SK-MEL-2 melanoma): > 100 µM | TGI (A498 renal): > 100 µM | TGI (RPMI-8226 leukemia): > 100 µM | TGI (BT-549 breast): > 100 µM | TGI (SNB-75 CNS): > 100 µM | TGI (SF-539 CNS): > 100 µM | TGI (SF-268 CNS): > 100 µM | TGI (HS 578T breast): > 100 µM | TGI (SK-MEL-28 melanoma): > 100 µM | TGI (SF-295 CNS): > 100 µM | TGI (786-0 renal): > 100 µM | TGI (OVCAR-8 ovarian): > 100 µM | TGI (M14 melanoma): > 100 µM | TGI (UACC-257 melanoma): > 100 µM | TGI (RXF 393 renal): > 100 µM | TGI (MCF7 breast): > 100 µM | TGI (MDA-MB-435): > 100 µM | TGI (OVCAR-4 ovarian): > 100 µM | TGI (MOLT-4 leukemia): > 100 µM

CCCCCCCCCCCCO[P+](=O)OCCCCCCCCCCCC
TGI (MDA-N): > 100 µM | TGI (SK-OV-3 ovarian): > 100 µM | TGI (HCC-2998 colon): > 100 µM | TGI (UACC-62 melanoma): > 100 µM | TGI (IGROV1 ovarian): > 100 µM | TGI (EKVX NSCLC): > 100 µM | TGI (A549 NSCLC): > 100 µM | TGI (OVCAR-3 ovarian): > 100 µM | TGI (NCI-H226 lung): > 100 µM | TGI (HL-60(TB) leukemia): > 100 µM | TGI (HOP-92 NSCLC): > 100 µM | TGI (DU-145 prostate): > 100 µM | TGI (TK-10 renal): 99.2 µM | TGI (SN12C renal): > 100 µM | TGI (SNB-19 CNS): > 100 µM | TGI (NCI-H460 lung): > 100 µM | TGI (OVCAR-5 ovarian): > 100 µM | TGI (K-562 leukemia): > 100 µM | TGI (COLO 205 colon): > 100 µM | TGI (HT29 colon): > 100 µM | TGI (NCI-H23 lung): > 100 µM | TGI (HCT-15 colon): > 100 µM | TGI (NCI/ADR-RES ovarian): > 100 µM | TGI (SK-MEL-5 melanoma): > 100 µM | TGI (HOP-62 NSCLC): > 100 µM | TGI (ACHN renal): > 100 µM | TGI (UO-31 renal): > 100 µM | TGI (KM12 colon): 72.2 µM | TGI (MDA-MB-231 breast): > 100 µM | TGI (T-47D breast): > 100 µM | TGI (U251 CNS): > 100 µM | TGI (PC-3 prostate): > 100 µM | TGI (HCT-116 colon): > 100 µM | TGI (SW-620 colon): > 100 µM | TGI (SK-MEL-2 melanoma): > 100 µM | TGI (A498 renal): > 100 µM | TGI (RPMI-8226 leukemia): > 100 µM | TGI (BT-549 breast): > 100 µM | TGI (SNB-75 CNS): > 100 µM | TGI (SF-539 CNS): > 100 µM | TGI (SF-268 CNS): > 100 µM | TGI (HS 578T breast): > 100 µM | TGI (SK-MEL-28 melanoma): > 100 µM | TGI (MALME-3M melanoma): > 100 µM | TGI (SF-295 CNS): > 100 µM | TGI (786-0 renal): > 100 µM | TGI (OVCAR-8 ovarian): > 100 µM | TGI (M14 melanoma): > 100 µM | TGI (UACC-257 melanoma): 62.2 µM | TGI (NCI-H522 lung): > 100 µM | TGI (CCRF-CEM leukemia): > 100 µM | TGI (RXF 393 renal): > 100 µM | TGI (MCF7 breast): > 100 µM | TGI (MDA-MB-435): > 100 µM | TGI (OVCAR-4 ovarian): > 100 µM | TGI (MOLT-4 leukemia): > 100 µM
